Data reported in US9707267B2, “Beta-turn peptidomimetic cyclic compounds for treating dry eye” (Mimetogen Pharmaceuticals, Inc., priority 2008, dated 2017).

Experiments:
[1] = system: cultured rat conjunctival goblet cells; test: Goblet cell glycoconjugate secretion, ELLA with UEA-1 (Example 2); assay type: cell-based; conditions: 2 hours; for Glycoconjugate Secretion, Mean ± sem: mean of rats; for Glycoconjugate Secretion, Mean ± SD: mean of rats/plates
Description: The culturing of conjunctival goblet cells from explant cultures was as previously described in Shatos, M. et al., “Isolation, Characterization, and Propagation of Rat Conjunctival Goblet Cells In Vitro,” IOVS 42:1455-1464 (2001), the entire content of which is incorporated herein by reference. The tissue was finely minced and individual pieces were anchored onto scored 6-well cultures dishes in 0.5 mL of complete RPMI-1640 (supplemented with 10% FBS, 2 mM glutamine and 100 μg/mL penicillin-streptomycin) and incubated at 37° C. in a humidified 5% CO2-atmosphere. Explant cultures were refed every 2 days. Within a few days, goblet cells migrated from the pieces and began to proliferate. After approximately one week, the tissue plugs were removed and the goblet cells were allowed to grow to confluence. Cells were passaged once by trypsinization of adherent cells with 0.05% trypsin-0.53 mM EDTA (pH 7.4), and plated in 8-well Laboratory Tek chamber slides (histochemistry) or in 96 well (proliferation), 24 well (secretion), or 6 well (western blots) culture plates with complete RPMI-1640 media.
To measure cell secretion, goblet cells were grown to confluence and then serum depleted for 2 hours prior to stimulation. Cells were incubated with compound D3 at 2, 10, and 50 μM, NGF at 0.1, 1 and 10 nM, and PMA at 0.1, 1, and 10 nM in serum-free RPMI for 2 hours. Goblet cell secretion was measured using an enzyme-linked lectin assay (ELLA). Briefly, an aliquot of the cell culture supernatant was transferred to a 96-well polystyrene microtiter plate in triplicate (Corning Life Sciences #2592, Fisher Scientific, Nepean, Ont). A dilution series of bovine submaxillary mucin (BSM) (Sigma, St. Louis, Mo.) was included on each plate as the standard (standard curve data and data showing that detection of BSM is linear between 0.003 and 0.1 μg not shown). The plates were coated by evaporation at 37° C. overnight. After, the plates were washed three times with wash buffer [PBS containing 0.3% BSA, 0.05% Tween-20] then blocked for nonspecific binding with PBS containing 3% BSA and 0.05% Tween-20 at 37° C. for 1 hour. The wells were rinsed three times in wash buffer, and then incubated in 2 μg/mL biotinylated UEA-1 diluted in wash buffer (Vector Labs, Burlingame, Calif.) at 37° C. for 1 hour. The wells were rinsed three times in wash buffer, and then incubated in 1 μg/mL HRP-conjugated neutravidin diluted in wash buffer (Pierce, Rockford, Ill.) at 37° C. for 1 hour. After the wells were rinsed three times in wash buffer, the color development was performed with TMB (Promega, Madison, Wis.) and stopped with 0.5N Sulfuric acid. The absorbance was read at 450 nm on a Benchmark Plus (Biorad). The goblet cells remaining in the culture wells were either scraped in RIPA buffer [1% TritonX-100, 20 mM Tris-HCl pH 7.5, 150 mM NaCl, 1.5 mM MgCl2, 1% Na deoxycholate, 1 mM EGTA, 1 mM EDTA, 0.1% SDS, 10% glycerol, 1 mM Na vanadate, 10 mM Na fluoride, 10 mM Na pyrophosphate, complete mini EDTA-free protease inhibitors (Roche Applied Science, Indianapolis, Ind.)] or 1M Tris-buffer (pH 7.5), collected and sonicated. The amount of protein in the cell homogenate was analyzed using the Bradford protein assay kit using a dilution series of bovine serum albumin (BSA) as the standard (BioRad, Montreal, PQ). Glycoconjugate secretion was normalized to total protein in the homogenate. Data was then expressed as fold increase above basal. […]

[2] = system: Conjunctival goblet cells; test: Conjunctival goblet cell proliferation, WST-8 assay (Example 1); assay type: cell-based, rat; conditions: NGF 1 nM (FIG. 4), 24 hours
Description: Cells derived from the explants were grown in RPMI 1640 supplemented with 10% fetal bovine serum (FBS) and penicillin (100 U/mL)/streptomycin (100 μg/mL) at 37° C. in a humidified 5% CO2-atmosphere for seventy-two hours. Contaminating nongoblet cells were removed by scraping them from the plate. During this time, goblet cells migrated from the pieces and began to proliferate. After one week, the goblet cells were trypsinized and plated in twenty-four well culture plates with RPMI-1640 media supplemented with 10% FBS.
Conjunctival goblet cells were grown to subconfluence in 24-well culture plates and then serum deprived for twenty-four hours. […] CGC proliferation was determined with a colorimetric nonradioactive, WST-8 proliferation assay that measures the number of cells. This procedure employs the 2-(2-methoxy-4-nitrophenyl)-3-(4-nitrophenyl)-5-(2,4-disulfophenyl)-2H-tetrazolium, monosodium salt (WST-8), which is cleaved by viable, growing mitochondria to form a dark blue formazan product that is detected by a fluorescence ELISA reader (Bio-Tek, Winooski, Vt.) at 460 nm.
Data for CGC glycoconjugate secretion and proliferation were expressed as the increase (x-fold) above basal value, which was standardized to 1.0. For example, for the 0.3 μM (micromolar), 1 μM and 10 μM doses, the CGC glycoconjugate secretion and proliferation were expressed as test compound over untreated cells. […]

In the case of `NCCCC[C@@H]1NC(=O)[C@H](CCC(=O)O)NC(=O)c2cc([N+](=O)[O-])ccc2OCCC(C(=O)NCC(=O)O)NC1=O` (stereo partly drawn) [Compound D3], the “Glycoconjugate Secretion” value ([1]; 2 μM, Rat 2) is reported as 1.25 Fold increase above basal, the “Glycoconjugate Secretion” value ([1]; 2 μM, Rat 2 Plate 1) is reported as 2.5 μg glycoconjugate/mg total protein and the “Glycoconjugate Secretion” value ([1]; 2 μM, Rat 3) is reported as 2.14 Fold increase above basal. For the same molecule, the “Glycoconjugate Secretion” value ([1]; 2 μM, Rat 3 Plate 1) was 10.5 μg glycoconjugate/mg total protein, the “Glycoconjugate Secretion” value ([1]; 2 μM, Rat 4) was 1.09 Fold increase above basal and the “Glycoconjugate Secretion” value ([1]; 2 μM, Rat 4 Plate 1) was 9.3 μg glycoconjugate/mg total protein. For the same molecule, the “Glycoconjugate Secretion, Mean ± sem” value ([1]; 2 μM) was 1.49±0.33 Fold increase above basal, the “Glycoconjugate Secretion, Mean ± SD” value ([1]; 2 μM) was 7.4 ± 4.3 μg glycoconjugate/mg total protein and the “Glycoconjugate Secretion, Mean ± sem” value ([1]; 2 μM, listed as MIM-D3) was 1.49 ± 0.33 Fold increase above basal. The “Glycoconjugate Secretion” value ([1]; 10 μM, Rat 2) was 1.25 Fold increase above basal, the “Glycoconjugate Secretion” value ([1]; 10 μM, Rat 2 Plate 1) was 2.5 μg glycoconjugate/mg total protein and the “Glycoconjugate Secretion” value ([1]; 10 μM, Rat 3) was 1.04 Fold increase above basal. For the same molecule, the “Glycoconjugate Secretion” value ([1]; 10 μM, Rat 3 Plate 1) was 5.1 μg glycoconjugate/mg total protein, the “Glycoconjugate Secretion” value ([1]; 10 μM, Rat 4) was 1.35 Fold increase above basal and the “Glycoconjugate Secretion” value ([1]; 10 μM, Rat 4 Plate 1) was 11.6 μg glycoconjugate/mg total protein. The “Glycoconjugate Secretion, Mean ± sem” value ([1]; 10 μM) was 1.21 ± 0.09 Fold increase above basal, the “Glycoconjugate Secretion, Mean ± SD” value ([1]; 10 μM) was 6.4 ± 4.7 μg glycoconjugate/mg total protein and the “Glycoconjugate Secretion” value ([1]; 50 μM, Rat 1) was 1.38 Fold increase above basal. For the same molecule, the “Glycoconjugate Secretion” value ([1]; 50 μM, Rat 1 Plate 2) was 5.4 μg glycoconjugate/mg total protein, the “Glycoconjugate Secretion” value ([1]; 50 μM, Rat 2) was 1.65 Fold increase above basal and the “Glycoconjugate Secretion” value ([1]; 50 μM, Rat 2 Plate 1) was 3.3 μg glycoconjugate/mg total protein. The “Glycoconjugate Secretion” value ([1]; 50 μM, Rat 3) was 1.16 Fold increase above basal, the “Glycoconjugate Secretion” value ([1]; 50 μM, Rat 3 Plate 1) was 5.7 μg glycoconjugate/mg total protein and the “Glycoconjugate Secretion” value ([1]; 50 μM, Rat 4) was 1.11 Fold increase above basal. The “Glycoconjugate Secretion” value ([1]; 50 μM, Rat 4 Plate 1) was 9.5 μg glycoconjugate/mg total protein, the “Glycoconjugate Secretion, Mean ± sem” value ([1]; 50 μM) was 1.33 ± 0.12 Fold increase above basal and the “Glycoconjugate Secretion, Mean ± SD” value ([1]; 50 μM) was 6.0 ± 2.6 μg glycoconjugate/mg total protein.

In the case of “NGF: nerve growth factor (recombinant human), positive control”, the CGC proliferation [2] is reported as 1.6±0.3 fold above basal, the “Glycoconjugate Secretion” value ([1]; 0.1 nM, Rat 1) is reported as 1.49 Fold increase above basal and the “Glycoconjugate Secretion” value ([1]; 0.1 nM, Rat 1 Plate 1) is reported as 7.6 μg glycoconjugate/mg total protein. For the same molecule, the “Glycoconjugate Secretion” value ([1]; 0.1 nM, Rat 2) was 1.20 Fold increase above basal, the “Glycoconjugate Secretion” value ([1]; 0.1 nM, Rat 2 Plate 1) was 2.4 μg glycoconjugate/mg total protein and the “Glycoconjugate Secretion” value ([1]; 0.1 nM, Rat 3) was 0.94 Fold increase above basal. For the same molecule, the “Glycoconjugate Secretion” value ([1]; 0.1 nM, Rat 3 Plate 1) was 4.6 μg glycoconjugate/mg total protein, the “Glycoconjugate Secretion” value ([1]; 0.1 nM, Rat 4) was 1.24 Fold increase above basal and the “Glycoconjugate Secretion” value ([1]; 0.1 nM, Rat 4 Plate 1) was 10.6 μg glycoconjugate/mg total protein. The “Glycoconjugate Secretion, Mean ± sem” value ([1]; 0.1 nM) was 1.22 ± 0.11 Fold increase above basal, the “Glycoconjugate Secretion, Mean ± SD” value ([1]; 0.1 nM) was 6.3 ± 3.6 μg glycoconjugate/mg total protein and the “Glycoconjugate Secretion” value ([1]; 1 nM, Rat 1) was 2.67 Fold increase above basal. For the same molecule, the “Glycoconjugate Secretion” value ([1]; 1 nM, Rat 1 Plate 1) was 13.6 μg glycoconjugate/mg total protein, the “Glycoconjugate Secretion” value ([1]; 1 nM, Rat 2) was 0.85 Fold increase above basal and the “Glycoconjugate Secretion” value ([1]; 1 nM, Rat 2 Plate 1) was 1.7 μg glycoconjugate/mg total protein. For the same molecule, the “Glycoconjugate Secretion” value ([1]; 1 nM, Rat 3) was 1.00 Fold increase above basal, the “Glycoconjugate Secretion” value ([1]; 1 nM, Rat 3 Plate 1) was 4.9 μg glycoconjugate/mg total protein and the “Glycoconjugate Secretion” value ([1]; 1 nM, Rat 4) was 1.26 Fold increase above basal. For the same molecule, the “Glycoconjugate Secretion” value ([1]; 1 nM, Rat 4 Plate 1) was 10.8 μg glycoconjugate/mg total protein, the “Glycoconjugate Secretion, Mean ± sem” value ([1]; 1 nM) was 1.44 ± 0.42 Fold increase above basal and the “Glycoconjugate Secretion, Mean ± SD” value ([1]; 1 nM) was 7.8 ± 5.4 μg glycoconjugate/mg total protein. For the same molecule, the “Glycoconjugate Secretion” value ([1]; 10 nM, Rat 1) was 1.58 Fold increase above basal, the “Glycoconjugate Secretion” value ([1]; 10 nM, Rat 1 Plate 1) was 10.4 μg glycoconjugate/mg total protein and the “Glycoconjugate Secretion” value ([1]; 10 nM, Rat 1 Plate 2) was 4.4 μg glycoconjugate/mg total protein. The “Glycoconjugate Secretion” value ([1]; 10 nM, Rat 2) was 1.49 Fold increase above basal, the “Glycoconjugate Secretion” value ([1]; 10 nM, Rat 2 Plate 1) was 3.6 μg glycoconjugate/mg total protein and the “Glycoconjugate Secretion” value ([1]; 10 nM, Rat 2 Plate 2) was 2.7 μg glycoconjugate/mg total protein. For the same molecule, the “Glycoconjugate Secretion” value ([1]; 10 nM, Rat 3) was 1.98 Fold increase above basal, the “Glycoconjugate Secretion” value ([1]; 10 nM, Rat 3 Plate 1) was 9.7 μg glycoconjugate/mg total protein and the “Glycoconjugate Secretion” value ([1]; 10 nM, Rat 4) was 1.19 Fold increase above basal. The “Glycoconjugate Secretion” value ([1]; 10 nM, Rat 4 Plate 1) was 10.2 μg glycoconjugate/mg total protein, the “Glycoconjugate Secretion, Mean ± sem” value ([1]; 10 nM) was 1.55±0.18 Fold increase above basal and the “Glycoconjugate Secretion, Mean ± SD” value ([1]; 10 nM) was 6.8 ± 3.6 μg glycoconjugate/mg total protein.
